In data set [1] the target is Nonstructural protein 1 (Influenza A virus, UniProt Q194T2). It counts as functional, Influenza A virus (A/California/07/2009(H1N1)).
A short description of data set [2]: Luminescence Cell-Based Dose Response HTS to Identify Inhibitors of 5'UTR Stem-Loop Driven Prion Protein mRNA Translation in H4 Neuroglioblastoma Cells. [Related pubchem assays: 1827 (Project Summary), 1813 (Primary HTS)]. It counts as functional.
The nature of data set [3]: inhibitors of SNCA 5'UTR-driven reporter translation, confirmation, H4 neuroglioma cells, luminescence (AID 1988). Format: functional, cell-based.
Data set [4] has as its system BJ. The experiment in a line: cells. Format: functional, cell-based. To be noted: Homo sapiens.
A short description of data set [5]: cytotoxicity toward DRD oncogenic fibroblasts, dose response, cell-based, non-viral oncogenic, luminescence (AID 1934). To be noted: Homo sapiens. Format: functional.
A short description of data set [6]: inhibitors of firefly luciferase expression or activity, dose response, H4 neuroglioma cells, luminescence (AID 1990). Format: functional, cell-based.
The subject of data set [7] is BJ. In words: cytotoxicity toward BJ-TERT-LT-ST fibroblasts, dose response, cell-based, RAS-independent, luminescence (AID 1935).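 Also: BJ fibroblasts immortalized with TERT plus LT and ST oncogenes.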 It counts as functional. Particulars: Homo sapiens.
Data set [8] relates to BJ. In words: cytotoxicity toward BJ-TERT fibroblasts, dose response, cell-based, RAS-independent, luminescence (AID 1933). It counts as functional. To be noted: Homo sapiens.
Data set [9] concerns the target Cytochrome P450 2C9 (Homo sapiens, UniProt P11712).
The target in data set [10] is T1, Leucine aminopeptidase (Plasmodium falciparum 3D7, UniProt Q8IL11).
T1 sequence (Q8IL11 whole entry): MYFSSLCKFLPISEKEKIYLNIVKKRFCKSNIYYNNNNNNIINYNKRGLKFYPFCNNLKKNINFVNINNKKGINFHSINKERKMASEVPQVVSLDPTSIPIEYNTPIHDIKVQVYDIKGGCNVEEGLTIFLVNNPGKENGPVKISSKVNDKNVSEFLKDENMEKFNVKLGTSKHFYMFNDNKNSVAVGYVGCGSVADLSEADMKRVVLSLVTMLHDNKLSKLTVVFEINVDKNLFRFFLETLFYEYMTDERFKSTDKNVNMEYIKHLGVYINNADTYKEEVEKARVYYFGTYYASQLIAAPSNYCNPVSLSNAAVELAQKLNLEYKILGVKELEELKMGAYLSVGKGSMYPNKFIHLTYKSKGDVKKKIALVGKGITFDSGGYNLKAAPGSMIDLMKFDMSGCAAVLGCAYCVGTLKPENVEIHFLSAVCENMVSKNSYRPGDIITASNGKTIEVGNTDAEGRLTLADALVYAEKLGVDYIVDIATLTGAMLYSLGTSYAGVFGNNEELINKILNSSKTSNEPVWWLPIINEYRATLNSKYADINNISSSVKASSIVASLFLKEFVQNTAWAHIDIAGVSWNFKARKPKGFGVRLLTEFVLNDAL
The experiment in a line: P. falciparum M17LAP inhibitors, primary screen, biochemical, fluorogenic H-Leu-NHMec substrate, 1536-well (AID 1619). Format: functional.

In data set [11] the target is Cytochrome P450 2C19 (Homo sapiens, UniProt P33261). The experiment in a line: Cytochrome panel assay with activity outcomes. Panel member name: p450-cyp2c19 Compounds with AC50 equal or less than 10 uM are considered active. To be noted: read-out: AC50. Format: functional.
For data set [12], the target named is Glyceraldehyde-3-phosphate dehydrogenase (Homo sapiens, UniProt P04406).
In data set [13] the target is T2, Alkaline phosphatase, tissue-nonspecific isozyme (Homo sapiens, UniProt P05186).
T2 sequence (P05186 whole entry): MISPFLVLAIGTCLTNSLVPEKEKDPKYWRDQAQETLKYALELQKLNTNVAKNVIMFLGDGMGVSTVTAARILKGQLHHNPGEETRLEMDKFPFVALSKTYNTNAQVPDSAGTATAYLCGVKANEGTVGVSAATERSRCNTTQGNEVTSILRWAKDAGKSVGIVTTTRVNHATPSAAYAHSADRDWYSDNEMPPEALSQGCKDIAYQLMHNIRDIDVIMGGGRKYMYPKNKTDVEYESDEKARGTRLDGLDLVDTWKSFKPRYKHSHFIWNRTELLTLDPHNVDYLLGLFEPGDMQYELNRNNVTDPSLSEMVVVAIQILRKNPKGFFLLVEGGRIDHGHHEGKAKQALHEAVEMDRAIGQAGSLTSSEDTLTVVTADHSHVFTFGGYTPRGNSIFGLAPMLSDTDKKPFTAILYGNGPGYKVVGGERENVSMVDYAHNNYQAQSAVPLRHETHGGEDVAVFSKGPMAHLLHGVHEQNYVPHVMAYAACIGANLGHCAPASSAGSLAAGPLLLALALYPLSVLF
The experiment in a line: human TNAP enzyme inhibitors, SAR follow-up, biochemical, luminescent, dose response (AID 1056).

Data set [14] addresses Cytochrome P450 2D6 (Homo sapiens, UniProt P10635).
Data set [15] in a line: Luminescence Cell-Based Dose Response HTS to Identify Activators of Luciferase Translation or Activity in H4 […] Cells. [Related pubchem assays: 1829 (Project Summary), 1814 (Primary HTS)]. It counts as functional.

Active and inactive are the calls of the source.

Sequence of Glyceraldehyde-3-phosphate dehydrogenase (P04406 whole entry): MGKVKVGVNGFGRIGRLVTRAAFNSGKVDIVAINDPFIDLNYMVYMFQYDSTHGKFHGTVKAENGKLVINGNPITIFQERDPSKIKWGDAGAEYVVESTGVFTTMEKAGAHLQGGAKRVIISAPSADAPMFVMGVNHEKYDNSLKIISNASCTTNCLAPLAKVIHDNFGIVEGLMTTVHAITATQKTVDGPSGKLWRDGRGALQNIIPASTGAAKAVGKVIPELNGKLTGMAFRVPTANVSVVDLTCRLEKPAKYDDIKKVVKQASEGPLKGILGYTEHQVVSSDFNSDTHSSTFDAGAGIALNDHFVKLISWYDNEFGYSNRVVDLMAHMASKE
Sequence of Cytochrome P450 2C9 (P11712 whole entry): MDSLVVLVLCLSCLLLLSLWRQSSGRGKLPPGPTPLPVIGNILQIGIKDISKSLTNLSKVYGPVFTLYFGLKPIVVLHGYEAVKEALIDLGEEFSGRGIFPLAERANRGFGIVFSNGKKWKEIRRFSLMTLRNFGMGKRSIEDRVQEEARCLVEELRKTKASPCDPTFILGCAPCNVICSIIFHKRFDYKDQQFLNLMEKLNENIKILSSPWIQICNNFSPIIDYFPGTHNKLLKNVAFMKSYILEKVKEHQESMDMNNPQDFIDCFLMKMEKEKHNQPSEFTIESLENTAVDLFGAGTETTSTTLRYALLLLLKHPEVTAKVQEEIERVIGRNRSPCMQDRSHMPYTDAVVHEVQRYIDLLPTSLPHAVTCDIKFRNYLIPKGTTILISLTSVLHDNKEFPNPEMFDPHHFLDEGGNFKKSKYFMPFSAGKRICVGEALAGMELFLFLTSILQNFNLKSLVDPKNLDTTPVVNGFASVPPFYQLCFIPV
Sequence of Nonstructural protein 1 (Q194T2 whole entry): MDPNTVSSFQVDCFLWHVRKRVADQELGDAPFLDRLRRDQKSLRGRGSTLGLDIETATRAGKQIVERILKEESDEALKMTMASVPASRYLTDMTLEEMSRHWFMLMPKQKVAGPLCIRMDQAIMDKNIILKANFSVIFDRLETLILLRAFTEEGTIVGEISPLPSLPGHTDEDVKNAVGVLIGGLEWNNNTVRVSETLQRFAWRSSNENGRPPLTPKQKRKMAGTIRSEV
Sequence of Cytochrome P450 2C19 (P33261 whole entry): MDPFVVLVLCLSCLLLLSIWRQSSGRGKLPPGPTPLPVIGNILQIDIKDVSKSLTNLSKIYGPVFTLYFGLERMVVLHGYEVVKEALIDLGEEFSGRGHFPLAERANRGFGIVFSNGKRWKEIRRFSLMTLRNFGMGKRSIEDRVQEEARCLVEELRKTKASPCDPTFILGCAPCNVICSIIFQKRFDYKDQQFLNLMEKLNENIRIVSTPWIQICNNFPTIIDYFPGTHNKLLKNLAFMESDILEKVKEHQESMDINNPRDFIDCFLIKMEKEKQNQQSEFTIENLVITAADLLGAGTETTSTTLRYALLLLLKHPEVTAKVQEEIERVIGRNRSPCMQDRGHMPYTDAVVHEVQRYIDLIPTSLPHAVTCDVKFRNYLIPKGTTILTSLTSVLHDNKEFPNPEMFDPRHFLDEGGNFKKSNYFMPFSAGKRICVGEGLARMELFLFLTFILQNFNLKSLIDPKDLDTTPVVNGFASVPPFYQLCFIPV
Sequence of Cytochrome P450 2D6 (P10635 whole entry): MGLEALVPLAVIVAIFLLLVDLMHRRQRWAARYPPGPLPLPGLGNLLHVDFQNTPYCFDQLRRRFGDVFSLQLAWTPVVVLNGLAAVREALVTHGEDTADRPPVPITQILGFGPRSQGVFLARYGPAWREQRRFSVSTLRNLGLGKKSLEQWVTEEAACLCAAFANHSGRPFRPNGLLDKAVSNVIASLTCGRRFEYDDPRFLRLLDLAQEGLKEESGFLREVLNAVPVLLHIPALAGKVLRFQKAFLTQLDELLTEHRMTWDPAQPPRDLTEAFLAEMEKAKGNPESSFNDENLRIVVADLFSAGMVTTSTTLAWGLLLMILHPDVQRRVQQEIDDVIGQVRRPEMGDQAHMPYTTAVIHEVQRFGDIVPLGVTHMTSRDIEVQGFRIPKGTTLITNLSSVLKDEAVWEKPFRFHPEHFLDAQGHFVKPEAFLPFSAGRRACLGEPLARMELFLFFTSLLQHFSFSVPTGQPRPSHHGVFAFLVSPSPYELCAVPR

By IC50 is commonly meant the midpoint of a concentration-inhibition curve. On to `Cn1c(=O)c2c(nc(NN/C=C3/C(=O)NC(=S)N(c4ccccc4)C3=O)n2C)n(C)c1=O`, for which the IC50 in [1] was 20.9 µM (active). For orientation: EC50 means the concentration needed to bring the measured effect to its halfway point. In the case of `Cc1cc(C(=O)OCC(=O)NCc2ccco2)c(C)n1-c1ccc(F)cc1`, the EC50 is 9.52 µM (active) in [2]; 4.93 µM (active) in data set [3]; 36 µM (active) in data set [4]; 16.7 µM (active) in data set [5]; > 120 µM (not active) in data set [6]; 4.61 µM (active) in data set [7]. Also, the EC50 in data set [8] was 9.71 µM (inconclusive). The AC50 is the concentration at which the activity in the assay is half-maximal. Take `CCCCCCCCCCCCCCCCCC(=O)O[C@H](CC(=O)O)C[N+](C)(C)C`: the AC50 entry in data set [9] is on record as “inconclusive”. Turning to `CCSc1nnc(NC(=O)C2CCCCC2C(=O)OCC(F)(F)C(F)F)s1` (stereo not drawn), the IC50 in [10] was 76.8 µM (active). In the case of `NC(=O)C1CCN(c2oc(-c3ccccc3)nc2S(=O)(=O)c2ccc(Br)cc2)CC1`, the IC50 in [1] was > 100 µM (active). As for `CCCNc1nc(NCC)nc(OC)n1`, the AC50 result was “inconclusive” in data set [9] and 17.8 µM (inconclusive) in data set [11].

For `COc1ccc(Cc2nnc(N3C(=O)[C@H]4CC=CC[C@H]4C3=O)[nH]2)cc1`, the results for the IC50 in data set [12] and in data set [13] were > 100 µM (not active) and 96 µM (active), respectively. Consider `O=[N+]([O-])c1ccc(N2CCOCC2)cc1NC(c1ccccc1)c1ccccc1`, for which the IC50 in [1] is > 100 µM (active). Turning to `Cc1ccc(/C=c2/sc3nnc(-c4ccccc4Cl)n3c2=O)o1`, the IC50 in [10] is 28.7 µM (active). As for `COc1ccccc1NC(=O)CN1CCC(C(=O)c2ccc(F)cc2)CC1`, the AC50 result in data set [9] was “inconclusive”; in [14], 25.1 µM (inconclusive). Turning to `c1ccc(COc2nsnc2N2CCOCC2)cc1`, in data set [1], the IC50 is > 100 µM (active).

For the compound `CCOC(=O)c1cc(-c2ccc3c(c2)OCCO3)n[nH]1`, the EC50 in [15] is 0.345 µM (active). Further, the half-inhibitory concentration (IC50) in [12] was > 100 µM (not active); in data set [13] it was 6.04 µM (active).

As to `CCc1c(O)nc(SCC(=O)Nc2ccc3c(c2)CCC3)nc1O`, the IC50 in data set [10] is 8.08 µM (active).

Take `COC(=O)c1cc(-c2ccc(C)cc2C)n[nH]1`: the IC50 was > 100 µM (not active) in [12] and 1.62 µM (active) in data set [13].

For the compound `C=CCc1cccc2cc(C(=O)N(CC)CC)c(=O)oc12`, the AC50 result in data set [9] is “inconclusive”; in [11], 28.2 µM (inconclusive). Turning to `Cc1ccc(NC2=NC(=O)/C(=C/c3ccc(O)c([N+](=O)[O-])c3)S2)cc1Cl`, the IC50 in data set [12] is recorded as > 100 µM (not active). Take `CN1CCN(c2ccc([N+](=O)[O-])cc2C(=O)c2ccc(Br)cc2)CC1`: the EC50 was 12.6 µM (active) in data set [2]; 4.21 µM (active) in data set [3]; 28.9 µM (active) in [4]; 4.11 µM (active) in data set [5]; 11.6 µM (active) in data set [6]; 5.07 µM (inconclusive) in data set [7]. Also, the EC50 in data set [8] was 4.96 µM (active). Turning to `CC(=O)Nc1n[nH]c(SCc2ccc(Br)cc2)n1`, the IC50 in [12] was > 100 µM (not active); in data set [13] it was > 100 µM (inactive). Regarding `COc1ccc(Br)cc1S(=O)(=O)Nc1ccc2ccccc2c1`, the results for the IC50 in data set [12] and in data set [13] were > 10 µM (inconclusive) and > 10 µM (inactive), respectively. `CCOC(=O)CC(=O)CSc1nc(O)c2sc(=S)n(-c3ccccc3)c2n1`: the IC50 in [10] was 40.6 µM (active). For `Cc1nnc(SCC(=O)Nc2cccc(C(F)(F)F)c2)[nH]c1=O`, in data set [10], the IC50 was 15.1 µM (active). Take `CC1CCN(C2=C(NS(=O)(=O)c3ccc(Br)cc3)C(=O)c3ccccc3C2=O)CC1`: the IC50 in data set [1] was 10.8 µM (active).

These data come from ChEMBL document CHEMBL1201862, “PubChem BioAssay data set” (2004).
